Source: US9771563B2, “Chemical approaches for generation of induced pluripotent stem cells” (The Scripps Research Institute, priority 2008, dated 2017)

Experiments:
mouse fibroblasts = test: Reprogramming of mouse fibroblasts with exogenous poly-Arg transcription factor proteins; format: cell-based; settings: cells incubated with transcription factor proteins plus agent
Procedure: Mouse fibroblasts were grown in mESC medium supplemented with 8 μg/ml of either Oct4/Sox2/Klf4 or Oct4/Sox2/Klf4/Myc (all proteins comprising poly-Arg as described above) for 6-8 hours, washed, and incubated for 2-3 days in mESC media without the above-listed transcription factors. This (4-12 hours with, 1-3 days without) was repeated a number (1, 2, 3, 4, or more) of times and then the cells were cultured in mESC for two weeks.
Mouse fibroblasts were grown in mESC growth medium [Knockout DMEM (Invitrogen) supplemented with 10% ES-FBS+10% KSR, 0.1 mM 2-ME, 1% Glutamax, 1% Non-essential amino acids, 1% EmbryoMax ESC Qualified Nucleosides (Millipore), and 10^3 units/ml LIF (ESGRO, Chemicon International)] supplemented with 8 μg/ml of Oct4/Sox2/Klf4/Myc (all four transcription factors are tagged with poly-Arg […]; SEQ ID NO:2) for 4-12 hours, followed by culturing the cells in the absence of the Oct4/Sox2/Klf4/Myc polypeptides for one day. This procedure was repeated 4 times. The cells were then cultured in mESC medium for another two weeks. iPSC clones were detected by colony morphology and expression of pluripotency markers. An intermediate iPSC clone, which expresses ALP but not Oct4 (Oct4), was dissociated with Trypsin-EDTA. The clone was then expanded by continuous culturing with regular mESC medium or medium supplemented with 0.5 μM PD0325901, 3 μM CHIR99021, 0.5 μM A-83-01. The number of Oct4-positive colonies were counted 2 weeks after small molecule treatment (FIG. 14).

[1] = tested on: MEFs (129, ROSA26+/-/OG2+/-); test: Reprogramming of MEFs transduced with Oct4/Sox2/Klf4 or Oct4/Klf4 with CHIR99021; format: cell-based, mouse
Procedure: Cell Culture and Viral Transduction: MEFs were derived from 129S2/SvPasCrlf and ROSA26^+/−/OG2^+/− mice according to the protocol reported on WiCell Research Institute website: “Introduction to human embryonic stem cell culture methods”. ROSA26^+/−/OG2^+/− heterozygous transgenic mice carry GFP reporter gene under the control of the Oct4 promoter (Oct4-GFP) and the ubiquitously expressed neo/lacZ transgene [Do J T, Scholer H R, Stem Cells, 22:941-949 (2004)]. Animal experiments were performed according to the Animal Protection Guidelines of the Max Planck Institute for Biomolecular Research, Germany. MEFs were transduced by Oct4, Klf4 and Sox2 three factors, or two-factor combinations of the pMXs-based retroviruses encoding mouse Oct4, Klf4 and Sox2 (Addgene) as previously described [Takahashi K, Yamanaka S, Cell, 126:663-676 (2006)]. […] MEFs transduced with Oct4/Klf4/Sox2 (lx 10^4 cells/well together with 10^5 cells/well CF1 feeders in 6-well plates) were then treated with GSK-3 inhibitor CHIR99021 (Stemgent) for two weeks, and EGFP positive colonies were picked up at the third week after treatment. MEFs transduced with Oct4/Klf4 (lx 10^5 cells/well in 6-well plates) were treated with 10 μM CHIR99021 for four weeks, GFP positive colonies were picked up and expanded at the fourth to fifth week after treatment.

MEFs = test: Real-time PCR of pluripotency genes in untransduced MEFs after small molecule treatment; format: cell-based, mouse; settings: 10 μM CHIR99021, three days
Procedure: To detect the expression of pluripotency genes by MEFs and NHEKs that were treated with small molecules, untransduced MEFs and NHEKs were treated for three days in mESC growth medium with 10 μM CHIR99021 or in hES cell medium with either combination of 10 μM CHIR99021 and 2 μM Parnate or combination of 10 μM CHIR99021, 2 μM Parnate, 0.5 μM PD0325901 and 2 μM SB431542. For the semi-quantitative and quantitative RT-PCR analyses, RNA was extracted from miPSCs-OK, hiPSCs-OK, MEFs, treated MEFs and treated NHEKs using the RNeasy Plus Mini Kit in combination with QIAshredder (Qiagene). Reverse transcription was performed with 1 μg RNA using iScript™ cDNA Synthesis Kit (BioRad). […] Real-time PCR was carried out using iQ SYBR Green Supermix (BioRad). […] The expression of genes of interest was normalized to that of GAPDH in all samples.

[2] = tested on: Normal Human Epidermal Keratinocytes (NHEKs); test: Reprogramming of lentivirally transduced NHEKs (TRA-1-81 colonies); format: cell-based; settings: 0.25 mM NaB vs 0.5 mM VPA
Excerpt: Among several readily available primary human somatic cell types, keratinocytes that can be easily isolated from human skin or hair follicle represent an attractive cell source for reprogramming, because they endogenously express Klf4 and cMyc, and were reported to be reprogrammed more efficiently using the conventional four TFs or three TFs (without Myc) (Aasen et al., Nat Biotechnol 26, 1276-1284 (2008); Maherali et al., Cell Stem Cell 3, 340-345 (2008)). […] Furthermore, we have shown that such dual pathway inhibition could also enhance reprogramming of human keratinocytes by two exogenous TFs (i.e. OK) with two small molecules, Parnate (an inhibitor of lysine-specific demethylase 1) and CHIR99021 (a GSK3 inhibitor) (Li et al., Stem Cells 27, 2992-3000 (2009)). However, such 2-TFs reprogramming process was very inefficient and complex (e.g. involving two exogenous TFs and four chemicals), and reprogramming with even one less TF appeared daunting. Toward this end, we developed a step-wise strategy in refining reprogramming condition and identifying new reprogramming chemical entities. […]

Cc1c[nH]c(-c2cnc(NCCNc3ccc(C#N)cn3)nc2-c2ccc(Cl)cc2Cl)n1 [CHIR99021]
efficiency and speed of development of pluripotent cells (mouse fibroblasts): improved efficiency and speed of development of pluripotent cells
GFP positive colonies out of 10^5 OG2 MEFs ([1]; Oct4/Klf4 transduction, 10 μM CHIR99021, 4-5 weeks): about six
reprogramming efficiency (GFP-positive colonies) ([1]; Oct4/Sox2/Klf4-transduced MEFs, about 10 μM, from 0.03-0.08% without): 0.2-0.4 % of transduced MEFs
number of AP-positive mESC-like colonies ([1]; Oct4/Sox2/Klf4 transduced MEFs, two weeks treatment, staining at third week): significantly increased the number of alkaline phosphase (AP)-positive mESC-like colonies in a dose-dependent manner
expression of Sox2 and Oct4 (real-time PCR) (MEFs): did not induce the expression of Sox2 and Oct4 in MEFs

CCCC(=O)[O-].[Na+] [NaB, sodium butyrate]
generation of iPSCs under OK condition [2]: much more reliable and efficient than the previously reported 0.5 mM VPA
